What was measured:
[1] = 298.15 K; for surface tension liquid-gas: Drop volume; for mass density: 101.33 kPa, Liquid
[2] = refractive index (Na D-line) (dimensionless); conditions: 298.15 K; 101.33 kPa; Liquid; Standard Abbe refractometry
[3] = xn = mol fraction of the nth substance listed; conditions: 298.15 K; for surface tension liquid-gas: Drop volume; for mass density: 101.3 kPa, Liquid
[4] = refractive index (Na D-line) (dimensionless); xn = mol fraction of the nth substance listed; conditions: 298.15 K, 101.3 kPa, Liquid, Standard Abbe refractometry

CCCCCCCCO [octan-1-ol]
Conditions	mass density [kg/m3]	refractive index	surface tension liquid-gas [mN/m]
[1]	821.63	–	27.13
[2]	–	1.4274	–

CCCCCCO [hexan-1-ol]
Conditions	mass density [kg/m3]	refractive index	surface tension liquid-gas [mN/m]
[1]	815.15	–	25.73
[2]	–	1.4159	–

CCCO [propan-1-ol]
Conditions	mass density [kg/m3]	refractive index	surface tension liquid-gas [mN/m]
[1]	799.62	–	23.39
[2]	–	1.383	–

CCCCCO [pentan-1-ol]
Conditions	mass density [kg/m3]	refractive index	surface tension liquid-gas [mN/m]
[1]	810.83	–	24.97
[2]	–	1.408	–

CCCCO [butan-1-ol]
Conditions	mass density [kg/m3]	refractive index	surface tension liquid-gas [mN/m]
[1]	805.76	–	24.02
[2]	–	1.3973	–

CCO [ethanol]
Conditions	mass density [kg/m3]	refractive index	surface tension liquid-gas [mN/m]
[1]	785.15	–	21.74
[2]	–	1.3593	–

CCCCCCCC [octane] + CCCO
Conditions	refractive index, [4]	surface tension liquid-gas, [3] [mN/m]
x1 = 0.0237	1.3835	–
x1 = 0.123	1.3852	22.38
x1 = 0.1859	1.3862	22.05
x1 = 0.2349	1.3869	21.81
x1 = 0.29	1.3877	21.66
x1 = 0.3454	1.3884	21.53
x1 = 0.3547	1.3885	21.51
x1 = 0.4493	1.3896	21.36
x1 = 0.5154	1.3903	21.3
x1 = 0.5218	1.3904	21.29
x1 = 0.6224	1.3914	21.22
x1 = 0.6308	1.3915	21.21
x1 = 0.6938	1.3921	21.21
x1 = 0.7592	1.3927	21.17
x1 = 0.7884	1.393	21.17
x1 = 0.8449	1.3935	21.16
x1 = 0.8918	1.394	21.16
x1 = 0.9245	1.3943	21.16

CCCCCCCO [heptan-1-ol] + CCCCCCCC
Conditions	refractive index, [4]	surface tension liquid-gas, [3] [mN/m]
x2 = 0.0616	1.4205	–
x2 = 0.0995	1.4194	25.35
x2 = 0.1699	1.4174	24.68
x2 = 0.1767	1.417	24.63
x2 = 0.2957	1.4136	23.72
x2 = 0.3286	1.4126	23.52
x2 = 0.353	1.4119	23.37
x2 = 0.4567	1.4091	22.79
x2 = 0.4918	1.4081	22.65
x2 = 0.5587	1.4062	22.38
x2 = 0.5956	1.4051	22.24
x2 = 0.6564	1.4036	22.04
x2 = 0.6626	–	22.01
x2 = 0.6629	1.4034	–
x2 = 0.783	1.4002	21.68
x2 = 0.7981	1.3999	21.63
x2 = 0.8409	1.3988	21.53
x2 = 0.9111	1.3971	21.38
x2 = 0.958	–	21.28

CCCCCCCC [octane] + CCO
Conditions	mass density [kg/m3]	refractive index	surface tension liquid-gas [mN/m]
[3], x1 = 0.0131	781.56	–	–
[3], x1 = 0.0523	771.81	–	–
[3], x1 = 0.0686	–	–	21.37
[3], x1 = 0.0788	766.05	–	–
[3], x1 = 0.1132	–	–	21.2
[3], x1 = 0.1433	758.82	–	–
[3], x1 = 0.1721	–	–	21.06
[3], x1 = 0.1881	754.27	–	–
[3], x1 = 0.2228	747.52	–	–
[3], x1 = 0.2616	742.94	–	–
[3], x1 = 0.2867	–	–	20.88
[3], x1 = 0.3011	738.29	–	–
[3], x1 = 0.3571	–	–	20.82
[3], x1 = 0.3725	734.06	–	–
[3], x1 = 0.3985	727.44	–	–
[3], x1 = 0.4536	725.27	–	–
[3], x1 = 0.4544	–	–	20.77
[3], x1 = 0.4898	–	–	20.77
[3], x1 = 0.5175	721.13	–	–
[3], x1 = 0.5401	–	–	20.78
[3], x1 = 0.5832	716.94	–	–
[3], x1 = 0.5865	–	–	20.79
[3], x1 = 0.6299	–	–	20.8
[3], x1 = 0.6457	–	–	20.81
[3], x1 = 0.669	–	–	20.84
[3], x1 = 0.6709	713.14	–	–
[3], x1 = 0.7226	708.8	–	–
[3], x1 = 0.765	–	–	20.89
[3], x1 = 0.8041	–	–	20.92
[3], x1 = 0.8191	–	–	20.94
[3], x1 = 0.8201	706.53	–	–
[3], x1 = 0.8707	702.91	–	–
[3], x1 = 0.9095	–	–	21.01
[3], x1 = 0.9212	–	–	21.05
[4], x1 = 0.0686	–	1.3641	–
[4], x1 = 0.1132	–	1.367	–
[4], x1 = 0.1721	–	1.3705	–
[4], x1 = 0.1834	–	1.3711	–
[4], x1 = 0.2867	–	1.3762	–
[4], x1 = 0.35	–	1.3789	–
[4], x1 = 0.3571	–	1.3792	–
[4], x1 = 0.4544	–	1.3827	–
[4], x1 = 0.4898	–	1.3839	–
[4], x1 = 0.5401	–	1.3853	–
[4], x1 = 0.5865	–	1.3866	–
[4], x1 = 0.6299	–	1.3877	–
[4], x1 = 0.6457	–	1.388	–
[4], x1 = 0.669	–	1.3885	–
[4], x1 = 0.765	–	1.3906	–
[4], x1 = 0.8191	–	1.3917	–
[4], x1 = 0.9095	–	1.3934	–
[4], x1 = 0.9212	–	1.3939	–

CCCCCO [pentan-1-ol] + CCCCCCCC
Conditions	refractive index, [4]	surface tension liquid-gas, [3] [mN/m]
x2 = 0.0189	1.4075	–
x2 = 0.115	1.4058	23.88
x2 = 0.1459	1.4052	23.6
x2 = 0.1629	1.4049	23.5
x2 = 0.2727	1.403	22.8
x2 = 0.3271	1.4022	22.54
x2 = 0.4586	1.4003	22.06
x2 = 0.4927	1.3999	21.96
x2 = 0.5188	1.3996	21.91
x2 = 0.5951	1.3986	21.75
x2 = 0.655	1.3979	21.65
x2 = 0.6713	1.3977	21.63
x2 = 0.7676	1.3968	21.5
x2 = 0.7932	1.3966	21.46
x2 = 0.834	1.3963	21.41
x2 = 0.8869	1.3958	21.35
x2 = 0.9457	1.3955	21.27

CCCCCCCC [octane] + CCCCO
Conditions	refractive index, [4]	surface tension liquid-gas, [3] [mN/m]
x1 = 0.0453	1.397	23.65
x1 = 0.113	1.3966	23.15
x1 = 0.1636	1.3964	22.84
x1 = 0.1788	1.3963	22.74
x1 = 0.2956	1.3957	22.2
x1 = 0.3281	–	22.08
x1 = 0.3526	1.3955	21.99
x1 = 0.4467	1.3952	21.73
x1 = 0.4857	1.3951	21.65
x1 = 0.5747	1.3949	21.49
x1 = 0.5886	–	21.49
x1 = 0.6326	1.3948	21.42
x1 = 0.6918	1.3948	21.36
x1 = 0.777	1.3948	21.29
x1 = 0.8167	1.3948	21.28
x1 = 0.865	1.3948	21.24
x1 = 0.9376	1.3949	21.21

CCCCCCCC [octane]
Conditions	mass density [kg/m3]	refractive index	surface tension liquid-gas [mN/m]
[1]	698.5	–	21.17
[2]	–	1.3951	–

CCCCCCO [hexan-1-ol] + CCCCCCCC
Conditions	refractive index, [4]	surface tension liquid-gas, [3] [mN/m]
x2 = 0.0515	1.4147	25.19
x2 = 0.0944	1.4136	24.79
x2 = 0.16	1.4119	24.22
x2 = 0.1837	1.4113	24.03
x2 = 0.2785	1.4091	23.38
x2 = 0.3309	–	23.08
x2 = 0.3311	1.4079	–
x2 = 0.4619	1.4049	22.48
x2 = 0.4987	1.404	22.32
x2 = 0.5049	1.4039	22.3
x2 = 0.5984	1.402	22.02
x2 = 0.6717	1.4007	21.83
x2 = 0.7019	1.4	21.74
x2 = 0.7478	1.3992	21.65
x2 = 0.7794	1.3987	21.58
x2 = 0.8504	1.3974	21.45
x2 = 0.895	1.3966	21.38
x2 = 0.959	1.3956	21.25

CCCCCCCCO [octan-1-ol] + CCCCCCCC
Conditions	refractive index, [4]	surface tension liquid-gas, [3] [mN/m]
x2 = 0.0641	1.4257	26.39
x2 = 0.12	–	25.83
x2 = 0.1378	1.4231	25.59
x2 = 0.1501	–	25.5
x2 = 0.2923	1.418	24.29
x2 = 0.3168	1.4172	24.11
x2 = 0.3554	1.4159	23.84
x2 = 0.4526	1.4128	23.23
x2 = 0.495	1.4114	23
x2 = 0.5413	1.41	22.76
x2 = 0.6269	1.4072	22.38
x2 = 0.6566	1.4062	22.24
x2 = 0.6897	1.4051	22.12
x2 = 0.7547	1.403	21.88
x2 = 0.8114	1.4012	21.7
x2 = 0.8617	1.3995	21.55
x2 = 0.8832	1.3989	21.51
x2 = 0.9635	1.3961	–

CCCCCCCO [heptan-1-ol]
Conditions	mass density [kg/m3]	refractive index	surface tension liquid-gas [mN/m]
[1]	818.75	–	26.47
[2]	–	1.4224	–

From the NIST ThermoML archive (doi:10.1021/je034053i)
